How the values were obtained:
[1] = target: T1, Rat M4 (Rattus norvegicus, UniProt P08485); test: mAChR M4 cell-based functional calcium flux assay (rat M4/Gqi5/CHO cells); conditions: for Emin (rat M4): % ACh maximum at 30 μM
T1 construct: expressed in transfected cells; host or cells: CHO-K1 (ATCC), stably expressing M4 and Gqi5
T1 sequence (P08485 1-478): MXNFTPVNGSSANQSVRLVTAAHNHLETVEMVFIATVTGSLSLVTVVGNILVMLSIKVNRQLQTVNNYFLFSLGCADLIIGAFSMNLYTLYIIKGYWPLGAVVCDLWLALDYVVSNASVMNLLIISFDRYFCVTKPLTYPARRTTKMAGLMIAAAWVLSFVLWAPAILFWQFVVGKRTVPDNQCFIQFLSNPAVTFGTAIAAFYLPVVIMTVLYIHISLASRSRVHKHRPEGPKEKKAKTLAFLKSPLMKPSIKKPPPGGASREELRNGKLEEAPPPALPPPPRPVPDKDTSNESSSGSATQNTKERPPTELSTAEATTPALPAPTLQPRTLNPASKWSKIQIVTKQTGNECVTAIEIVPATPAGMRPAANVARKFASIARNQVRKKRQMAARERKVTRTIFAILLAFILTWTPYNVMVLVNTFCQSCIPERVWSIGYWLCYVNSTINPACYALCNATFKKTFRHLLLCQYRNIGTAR
Procedure: (§1) Human, rat, or mouse M4. cDNA, along with the chimeric G protein Gqi5, were transfected into Chinese hamster ovary (CHO-K1) cells purchased from the American Type Culture Collection using Lipofectamine2000. M4/Gqi5/CHO cells were grown in Ham's F-12 medium containing 10% heat-inactivated fetal bovine serum (FBS), 20 mM HEPES, 500 μg/mL G418 sulfate, and 200 μg/mL Hygromycin B.
(§2) For high throughput measurement of agonist-evoked increases in intracellular calcium, CHO-K1 cells stably expressing muscarinic receptors were plated in growth medium lacking G418 and hygromycin at 15,000 cells/20 μL/well in Greiner 384-well black-walled, tissue culture (TC)-treated, clear-bottom plates (VWR). Cells were incubated overnight at 37° C. and 5% CO2. The next day, cells were washed using an ELX 405 (BioTek) with assay buffer; the final volume was then aspirated to 20 μL. Next, 20 μL of a 2.3 μM stock of Fluo-4/acetoxymethyl ester (Invitrogen, Carlsbad, CA), prepared as a 2.3 mM stock in DMSO and mixed in a 1:1 ratio with 10% (w/v) Pluronic F-127 and diluted in assay buffer, was added to the wells and the cell plates were incubated for 50 min at 37° C. and 5% CO2. Dye was removed by washing with the ELX 405 and the final volume was aspirated to 20 μL. Compound master plates were formatted in a 10 point concentration-response curve (CRC) format (1:3 dilutions) in 100% DMSO with a starting concentration of 10 or 1 mM using a BRAVO liquid handler (Agilent). Test compound CRCs were then transferred to daughter plates (240 nL) using the Echo acoustic plate reformatter (Labcyte, Sunnyvale, CA) and then diluted into assay buffer (40 μL) to a 2× stock using a Thermo Fisher Combi (Thermo Fisher Scientific, Waltham, MA).
(§3) Calcium flux was measured using the Functional Drug Screening System (FDSS) 6000 or 7000 (Hamamatsu Corporation, Tokyo, Japan) as an increase in the fluorescent static ratio. Compounds were applied to cells (20 μL, 2×) using the automated system of the FDSS at 2 seconds into the protocol and the data were collected at 1 Hz. At 143 s, 10 μL of an EC20 concentration of the muscarinic receptor agonist acetylcholine was added (5×), followed by the addition of 12 μL of an EC80 concentration of acetylcholine at the 268 s time point (5×). Agonist activity was analyzed as a concentration-dependent increase in calcium mobilization upon compound addition. Positive allosteric modulator activity was analyzed as a concentration-dependent increase in the EC20 acetylcholine response. Antagonist activity was analyzed as a concentration-dependent decrease in the EC80 acetylcholine response; for the purposes of the tables herein, an IC50 (inhibitory concentration 50) was calculated as a concentration-dependent decrease of the response elicited by an EC80 concentration of acetylcholine. Concentration-response curves were generated using a four-parameter logistical equation in XLFit curve fitting software (IDBS, Bridgewater, NJ) for Excel (Microsoft, Redmond, WA) or Prism (GraphPad Software, Inc., San Diego, CA) or the Dotmatics software platform (Dotmatics, Bishop's Stortford, UK).
(§4) Compounds were synthesized as described above. Activity (IC50 and Emin) was determined in the mAChR M4 cell-based functional assay as described above and the data are shown in Table 2 and Table 3. The compound number corresponds to the compound numbers used in the examples and Tables 1 and 1.1.

[2] = target: T2, Human M4 (Homo sapiens, UniProt P08173); test: mAChR M4 cell-based functional calcium flux assay (human M4/Gqi5/CHO cells); conditions: for Emin (human M4): % ACh maximum at 30 μM; for IC50: decrease of the response to an EC80 concentration of acetylcholine
T2 construct: expressed in transfected cells; host or cells: CHO-K1 (ATCC), stably expressing M4 and Gqi5
T2 sequence (P08173 1-479): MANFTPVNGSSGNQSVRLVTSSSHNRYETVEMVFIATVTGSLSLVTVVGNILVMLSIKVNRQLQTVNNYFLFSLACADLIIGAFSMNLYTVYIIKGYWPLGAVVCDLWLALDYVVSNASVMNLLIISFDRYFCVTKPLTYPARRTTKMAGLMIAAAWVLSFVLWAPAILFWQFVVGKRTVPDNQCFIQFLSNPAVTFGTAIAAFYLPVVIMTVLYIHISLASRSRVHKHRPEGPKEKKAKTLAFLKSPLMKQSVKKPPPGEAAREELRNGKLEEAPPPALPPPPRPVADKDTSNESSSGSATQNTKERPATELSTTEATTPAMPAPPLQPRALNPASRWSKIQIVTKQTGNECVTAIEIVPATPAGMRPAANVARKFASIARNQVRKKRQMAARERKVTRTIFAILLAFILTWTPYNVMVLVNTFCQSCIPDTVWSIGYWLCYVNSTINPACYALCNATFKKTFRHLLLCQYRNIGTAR
Procedure: as §1, §2, §3, §4

[3] = cells printed in μM, decrease of the EC80 acetylcholine response
[4] = decrease of the response to an EC80 concentration of acetylcholine

Compound	Emin (rat M4) [1] [%]	IC50 [1, 3] [µM]	Emin (human M4) [2] [%]	IC50 [2] [nM]	IC50 [1, 4] [µM]
CC(=O)Nc1ccc(-c2ccc(NC[C@H]3CC34CCN(CC3CCOCC3)CC4)nn2)cc1 [Compound 126, N-[4-[6-[[(2S)-6-(tetrahydropyran-4-ylmethyl)-6-azaspiro[2.5]octan-2-yl]methylamino]pyridazin-3-yl]phenyl]acetamide]	28	≥ 10	14	1810	–
Cc1nn(C)cc1-c1ccc(NCC2CC23CCN(CC24CC5CC(CC(C5)C2)C4)CC3)nn1 (stereo not drawn) [Compound 57, N-[[6-(1-adamantylmethyl)-6-azaspiro[2.5]octan-2-yl]methyl]-6-(1,3-dimethylpyrazol-4-yl)pyridazin-3-amine]	3.84	–	3.30	69.1	0.534
CC(C)(C)CCN1CCC2(CC1)CC2CNc1ccc(-c2cnccc2C(F)(F)F)nn1 (stereo not drawn) [Compound 49, N-[[6-(3,3-dimethylbutyl)-6-azaspiro[2.5]octan-2-yl]methyl]-6-[4-(trifluoromethyl)-3-pyridyl]pyridazin-3-amine]	2.44	–	2.64	12.8	0.0943
Cc1nn(C)cc1-c1ccc(NCC2CC23CCN(CC2CC4C=CC2C4)CC3)nc1 (stereo not drawn) [Compound 70, N-[[6-(5-bicyclo[2.2.1]hept-2-enylmethyl)-6-azaspiro[2.5]octan-2-yl]methyl]-5-(1,3-dimethylpyrazol-4-yl)pyridin-2-amine]	3.96	–	3.29	45.2	0.17
CCC(C)CN1CCC2(CC1)CC2CNc1ccc(-c2cn(C)nc2C)nn1 (stereo not drawn) [Compound 51, 6-(1,3-dimethylpyrazol-4-yl)-N-[[6-(2-methylbutyl)-6-azaspiro[2.5]octan-2-yl]methyl]pyridazin-3-amine]	7.13	–	4.31	49.5	0.808
CC(C)(C)CCN1CCC2(CC1)CC2CNc1ccc(-c2ccc(F)c(F)c2)nn1 (stereo not drawn) [Compound 32, 6-(3,4-difluorophenyl)-N-[[6-(3,3-dimethylbutyl)-6-azaspiro[2.5]octan-2-yl]methyl]pyridazin-3-amine]	2.80	–	2.71	74.9	0.168
Cc1cccnc1CN1CCC2(CC1)C[C@H]2CNc1ccc(-c2cc(F)ccc2Cl)nn1 [Compound 114, 6-(2-chloro-5-fluoro-phenyl)-N-[[(2R)-6-[(3-methyl-2-pyridyl)methyl]-6-azaspiro[2.5]octan-2-yl]methyl]pyridazin-3-amine]	5	–	2	25.7	0.223
CC(C)(C)CCN1CCC2(CC1)CC2CNc1ccc(N2CCOCC2)nn1 (stereo not drawn) [Compound 79, N-[[6-(3,3-dimethylbutyl)-6-azaspiro[2.5]octan-2-yl]methyl]-6-morpholino-pyridazin-3-amine]	5	–	5	5	0.0139
Cc1noc(C)c1-c1ccc(NCC2CC23CCN(CCC(C)(C)C)CC3)nn1 (stereo not drawn) [Compound 37, N-[[6-(3,3-dimethylbutyl)-6-azaspiro[2.5]octan-2-yl]methyl]-6-(3,5-dimethylisoxazol-4-yl)pyridazin-3-amine]	4.23	–	3.00	5.29	0.0593
CCN1CCC2(CC1)CC2CNc1ccc(-c2cn(C)nc2C)nn1 (stereo not drawn) [Compound 53, 6-(1,3-dimethylpyrazol-4-yl)-N-[(6-ethyl-6-azaspiro[2.5]octan-2-yl)methyl]pyridazin-3-amine]	75.5	> 10	75.5	–	–
CC(C)(C)CCN1CCC2(CC1)CC2CNc1ccc(-c2cccc(F)c2)nn1 (stereo not drawn) [Compound 27, N-[[6-(3,3-dimethylbutyl)-6-azaspiro[2.5]octan-2-yl]methyl]-6-(3-fluorophenyl)pyridazin-3-amine]	3.07	–	3.18	21.3	0.153
CC(C)(C)/C=C/c1ccc(NCC2CC23CCN(CCC(C)(C)C)CC3)nn1 (stereo not drawn) [Compound 91, 6-[(E)-3,3-dimethylbut-1-enyl]-N-[[6-(3,3-dimethylbutyl)-6-azaspiro[2.5]octan-2-yl]methyl]pyridazin-3-amine]	5	–	–	–	0.409
Cc1ccc(/C=C/c2ccc(NCC3CC34CCN(CCC(C)(C)C)CC4)nn2)cc1 (stereo not drawn) [Compound 92, N-[[6-(3,3-dimethylbutyl)-6-azaspiro[2.5]octan-2-yl]methyl]-6-[(E)-2-(p-tolyl)vinyl]pyridazin-3-amine]	4	–	–	–	1.01
Cc1nn(C)cc1-c1ccc(NCC2CC23CCN(CC(C)C(C)(C)C)CC3)nn1 (stereo not drawn) [Compound 10, 6-(1,3-dimethylpyrazol-4-yl)-N-[[6-(2,3,3-trimethylbutyl)-6-azaspiro[2.5]octan-2-yl]methyl]pyridazin-3-amine]	3.57	–	–	–	0.0478
Cc1cnn(C)c1-c1ccc(NCC2CC23CCN(CCC2CCCO2)CC3)nn1 (stereo not drawn) [Compound 4, 6-(1,4-dimethyl-1H-pyrazol-5-yl)-N-((6-(2-(tetrahydrofuran-2-yl)ethyl)-6-azaspiro[2.5]octan-1-yl)methyl)pyridazin-3-amine]	26.5	> 10	–	–	–
